Assay results reported in patent US8119691B2, “Method for treating airway hyper-responsiveness with lipoxin analogs” (National Institutes of Health (NIH), priority 2001, dated 2012).

Tests used:
[1] = system: OVA sensitized and challenged mice; experiment: Leukocytes in bronchoalveolar lavage fluid (Wright-Giemsa stain) of OVA sensitized and challenged mice; format: in vivo, mouse (BALB/c); details: LXa i.v.
Procedure: FIG. 3. […] Bronchoalveolar lavage fluids were obtained from OVA sensitized and challenged mice. Leukocytes in bronchoalveolar lavage fluid were enumerated and identified after Wright-Giemsa stain (a). Mediator profile of (b) specific cytokines (IL-5, IL-12, IL-13, eotaxin and TNFα), and lipid mediators, including PGE2 (c), LTB4 and cysLT's (d) were determined by ELISA's in materials from control animals and those receiving LXa (10 μg, i.v.). Results are expressed as mean±SEM (n≧6, d≧2). *P<0.05 by Student's t-test compared to control animals.
Sensitization and challenge protocols. Five to seven week old male BALB/c (Charles River Laboratories, Wilmington, Mass.) or female hCD11b-hALX FvB transgenic mice were housed in isolation cages under viral antibody-free conditions. […] On day 18, 24 h after the last aerosol challenge, airway responsiveness to intravenous methacholine (33-1000 μg/kg) was measured, bilateral bronchoalveolar lavage (BAL) (2 aliquots of 1 ml PBS plus 0.6 mM EDTA) was performed and tissues (whole blood, lungs, mediastinal lymph nodes and spleen) were harvested for histological analysis. Lung resistance (RL) was measured using a sealed constant mass plethysmograph. […] For mice studied using a whole body plethysmograph to assess airway responsiveness (Buxco), each mouse was placed into a chamber and box pressure/time waveform was analyzed to yield the indicator of airflow obstruction, enhanced pause (Penh). […] Readings were initiated at 3 min and continued for 12 min. Peak and one min average Penh values were determined. Serum total IgE levels were determined by ELISA (Crystal Chem, Chicago, Ill.). […]
Allergen-initiated respiratory inflammation. Measurement of inflammatory mediators was determined in cell-free BAL fluid (2000 g, 10 min) by sensitive and specific ELISA's, in tandem, for interleukin-5 (IL-5), IL-13, eotaxin, tumor necrosis factor (TNFα) (R&D Systems, Minneapolis, Minn.), LTB4, cysteinyl LT, PGE2 (Cayman Chemical Co., Ann Arbor, Mich.), and LXA4 (Neogen, Lexington, Ky.). […]

[2] = target: T1, recombinant cysLT1 receptors (Homo sapiens, UniProt Q9Y271); details: CHO cells, in vitro (ref. 12); cited from earlier work
T1 construct: host or cells: Chinese hamster ovary cells (recombinant expression)
T1 sequence (Q9Y271 1-337): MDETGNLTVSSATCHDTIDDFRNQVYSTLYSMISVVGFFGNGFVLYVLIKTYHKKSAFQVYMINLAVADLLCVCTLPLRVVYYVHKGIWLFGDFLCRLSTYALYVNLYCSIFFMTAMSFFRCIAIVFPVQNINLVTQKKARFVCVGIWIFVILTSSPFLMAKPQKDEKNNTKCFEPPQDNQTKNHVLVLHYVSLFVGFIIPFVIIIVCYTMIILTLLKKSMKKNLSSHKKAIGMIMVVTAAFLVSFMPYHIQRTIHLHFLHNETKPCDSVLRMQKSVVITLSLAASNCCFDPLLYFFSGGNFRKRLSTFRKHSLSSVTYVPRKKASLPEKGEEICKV

In the case of `COC(=O)CCC[C@H](O)[C@H](O)/C=C/C=C/C=C\C=C\[C@H](O)COc1ccc(F)cc1` [LXa, 15-epi,16-para-fluoro-phenoxy-LXA4-methyl ester], the BAL eosinophils [1] is reported as “sharply reduced in a dose-dependent fashion”, the BAL lymphocytes [1] is reported as “sharply reduced in a dose-dependent fashion” and the BAL total leukocytes [1] is reported as “sharply reduced in a dose-dependent fashion”. For the same molecule, the “competition for binding at LTD4 recognition sites and recombinant cysLT1 receptors” value [2] was “compete for binding with high affinity at LTD4 recognition sites”.
